In US5015661A, “Chromanes and their pharmaceutical compositions and methods” (Hoffmann-La Roche Inc., priority 1989, dated 1991) one finds inhibition in vivo and IC50 data, which are given here for two molecules.

The test system of experiment [1] is arachidonic acid-induced mouse ear edema. The experiment is described as follows: Mouse ear edema test (in vivo), arachidonic acid-induced. As to conditions: 1 mg topical, CD-1 male mice, 0.5 mg arachidonic acid 0.5 or 4 hours later, ear biopsy weight after 1 hour, read-out: EAR EDEMA % INHIB. 1 mg. The protocol:
MOUSE EAR EDEMA TEST (IN VIVO)
In this animal model system, the application of arachidonic acid to the ear results in the biosynthesis of the metabolic products […]-6,8,11,14-eicosatetraenoic acid (5-HETE), leukotriene B4 (LTB4), leukotriene C4 (LTC4), […]-5,8,10,14-eicosatetraenoic acid (12-HETE), and prostaglandin E2 (PGE2) at the site of application, followed by the influx of neutrophils into the site and the rapid development of edema within 30 to 60 minutes (See, for instance, Young, Wagner and Spries, "Tachyphylaxis in 12-O-Tetradecanoylphorbol Acetate And Arachidonic Acid-Induced Ear Edma," J. Invest. Dermatol. 80:48 (1983) and Hames, Opas and Bonney, "Arachidonic Acid MetaboIites in Mouse Ear Edma" Advances in Inflammation Research. 11:57 (1986).
CD-1 male mice weighing 15 to 25 g were employed, and they were designated as follows: (1) Control Group, in which no arachidonic acid or test compound was to be applied, (2) Arachidonic Acid-Treated Group, in which no test compound was to be applied, and (3) Treated Group, in which the test compound was to be applied first, followed by the application of arachidonic acid.
In the case of the Group (3) animals, the test compound, dissolved in acetone, was applied to the dorsal surface of the right ear of the mouse with a 25-microliter pipette or, with the dose of the test compound being varied. After 0.5 hours in some cases and 4 hours in others, the arachidonic acid was topically applied in the same manner as above to the pretreated ear areas. In each case of arachidonic acid application, an amount of 0.5 mg dissolved in 25 microliters of acetone was used. After 1 hour, the mice were sacrificed by carbon dioxide inhalation. A 6mm-diameter standard biopsy punch was used to obtain a uniform tissue sample from the ear of each mouse so treated, and the tissue samples were weighted to the nearest 0.1 mg. The percent inhibition of ear edema formation was calculated as follows: [formula]

In experiment [2] the target is T1, Δ^5 -lipoxygenase from rat basophilic leukemia (RBL-1) cells (Rattus norvegicus, UniProt P12527).
T1 construct: endogenous in cells; host or cells: RBL-1 rat basophilic leukemia cells (ATCC CRL 1378); 113,000×g supernatant (cytosolic fraction)
T1 sequence (P12527 1-673): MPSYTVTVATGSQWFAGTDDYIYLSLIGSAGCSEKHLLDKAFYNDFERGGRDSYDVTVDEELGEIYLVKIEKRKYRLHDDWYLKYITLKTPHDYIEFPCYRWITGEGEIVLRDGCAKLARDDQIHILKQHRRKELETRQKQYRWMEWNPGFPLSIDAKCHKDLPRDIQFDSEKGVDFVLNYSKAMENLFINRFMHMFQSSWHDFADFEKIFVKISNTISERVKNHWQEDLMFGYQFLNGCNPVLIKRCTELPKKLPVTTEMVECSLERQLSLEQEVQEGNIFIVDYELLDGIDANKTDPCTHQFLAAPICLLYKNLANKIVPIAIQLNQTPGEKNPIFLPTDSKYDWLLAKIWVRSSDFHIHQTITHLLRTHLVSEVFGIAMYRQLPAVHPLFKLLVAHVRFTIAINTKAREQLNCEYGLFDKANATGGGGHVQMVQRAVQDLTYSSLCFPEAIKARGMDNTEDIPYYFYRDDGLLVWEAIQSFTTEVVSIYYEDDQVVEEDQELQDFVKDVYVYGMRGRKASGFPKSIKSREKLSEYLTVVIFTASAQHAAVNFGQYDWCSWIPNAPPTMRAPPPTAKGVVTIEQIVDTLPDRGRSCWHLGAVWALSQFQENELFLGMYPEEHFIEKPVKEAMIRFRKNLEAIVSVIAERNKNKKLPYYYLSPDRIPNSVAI
The experiment is described as follows: In vitro test for Δ^5 -lipoxygenase inhibitors (5-LO), RBL-1 cell enzyme, 5-HETE radioimmunoassay. Type of experiment: biochemical. The note with it: RBL-1 5-LO; 10 min preincubation; 8.25 μM arachidonic acid, 10 min at 37° C.; 5-HETE formation; read-out: 5-LO IC-50. The method, then:
IN VITRO TEST FOR Δ^5 -LIPOXYGENASE INHIBITORS Compounds of formula I of the invention were tested for their effect on Δ^5 -lipoxygenase from rat basophilic leukemia (RBL-1) cells. Materials. RBL-1 cells (CRL 1378) were obtained from the American TYpe Culture Collection, Rockville, MD. DMEM and glutamine were purchased from Flow Labs, McLean, VA. FBS (Gibco, Grand Island, NY) was heat-inactivated for 1 hour at 56° C. Reagents for protein determinations were obtained from Biorad, Rockville Center, NY. Arachidonic acid (approx. 99%), ATP (disodium slat), BHT, dextran (clinical grade), tetrasodium EDTA, gelatin, gentamycin sulfate solution, reduced glutathione, 1 M HEPES buffer, indomethacin, NaCl, reduced NADpH, Trizma 7.2, and Trizma 8.5 were purchased from Sigma Chemical, St. Louis, MO. CaCl2 dihydrate, Norit A charcoal, and citric acid monohydrate were obtained from Fisher Scientific, Pittsburgh, PA. […] MA. A synthetic 5-HETE standard was supplied by Dr. M. Rosenberger, Dept. of Medicinal Chemistry, Hoffmann-La Roche, Nutley, NJ; [see Corey, E.J., and Hashimoto, S. (1981 ) Tet. Letters, 22, 299-302 for method of preparation]. Ecoscint liquid sointillation fluid was purchased from National Diagnostics, Sommerville, NJ. Isolation of 5-lipoxygenase. […] Approximately 7-9 days after thawing, RBL-1 cells growing in log phase were seeded at a density of 7500 viable cells/ml in a closed 89-liter spinner flask. The cells were stirred constantly for 3-4 days at 37° C. until they reached a density greater than 500,000/ml but less than 800,00/ml. RBL-1 cells were harvested by centrifugation at 4° C. at 1500×g for 10 minutes and were washed 3 times with ice cold 0.05 M tris-HCl, pH 7.2, tetrasodium EDTA (buffer 1). The cells were washed last in 0.05 M Tris-HCl containing 14 μM indomethacin, 1 mM glutathione, 1.5 mM NaCl, and 1 mM tetrasodium EDTA (buffer 2), resuspended at a density of 5×108'/ml (approximately 10 ml) and disrupted manually at 4° C. using a 40 ml Dounce (type A pestle) homogenizer. After 5 minutes of homogenization. 95% cell lysis was confirmed by phase contrast microscopy. The broken cells were diluted 1:2 with buffer 2 and centrifuged at 12,380×g for 10 minutes at 4° C. to pellet cellular debris and granules. The 12,380×g supernatant was centrifuged at 113,000×g for 60 minutes to pellet microsomes. The high-speed supernatant (5.9±0.48 mg/ml protein) was frozen immediately in 1 ml aliquots using a dry ice/acetone bath. The isolated cytosolic fraction was stored in liquid N2 for up to 8 weeks without loss of 5-LO enzyme activity. Lipoxygenase Assay. Compounds Were dissolved at 25 mM concentration in DMSO, then diluted to final concentrations using 95% ethanol. For a typical enzyme assay, the partially purified 5-LO preparation was preincubated with drug or vehicle for 10 minutes at 30° C. The assay tubes were then transferred at a 37° C. water bath where they received arachidonic acid (8.25 μM final concentration) to initiate 5-LO activity. In addition to enzyme and substrate, each reaction tube contained: 12.5 μmoles of Tris-HCl (pH 7.2), 25 nmoles glutathione, 0.35 nmoles indomethacin and 1.25 μmoles of CaCl2 and ATP to yield a total of volume of 250 μl. The enzyme reaction was terminated after 10 minutes by the addition of 75μl […] citric acid to yield pH 3.5. The samples were immediately cooled on ice and neutralized by dilution with 0.05 M Tris-HCl, pH 8.5, which contained 25 mg/1 BHT. A boiled cytosol control was placed at the end of each assay to measure non-enzymatic oxidation of arachidonic acid. The mean specific activity of the 5-LO enzyme preparation was approximately 66.16±14.39 pmol 5-HETE/min/mg protein. Radioimmunoassay for 5-HETE. Under the assay conditions described, the 5-LO catalyzed the conversion of arachidonic acid to 5-HPETE which, as a consequence o peroxidase activity, was reduced to 5-HETE. A specific radioimmunoassay was employed to quantitate the amount (pmoles) of 5-HETE formed during the enzyme reaction. […]

Take `Cc1c(C)c2c(c(C)c1O)CCC(C)(CCc1ccccc1)O2` (stereo not shown) [Example 56, 3,4-Dihydro-2,5,7,8-tetramethyl-2-(2-phenylethyl)-2H-1-benzopyran-6-ol]: in experiment [1], the inhibition in vivo at 1 mg was determined as 64%. The IC50 in experiment [2] turned out to be 110 nM.

As for `COc1cc(C=O)cc2cc(C3(C)CCc4c(C)c(O)c(C)c(C)c4O3)oc12` (racemic) [Example 54, rac-2-(3,4-Dihydro-6-hydroxy-2,5,7,8-tetramethyl-2H-1-benzopyran-2-yl)-7-methoxy-5-benzofurancarboxaldehyde], the inhibition in vivo at 1 mg in experiment [1] is 40%. Also, the IC50 in experiment [2] was found to be 1 nM.
